In data set [1] the test system is human monocytic leukemia THP-1 cells. Description: in vitro antiproliferative assay (WST-1). The format is cell-based. The note with it: Homo sapiens, THP-1, 24 h, THP-1 cells, WST-1, 24 h; read-out: Tox IC50. As to the method:
The preliminary in vitro screening of the antiproliferative effect of the investigated compounds was performed using a Water Soluble Tetrazolium salts-1 (WST-1) assay kit and a human monocytic leukemia THP-1 cell line by means of the method described recently. The principle of the WST-1 assay kit is the […] mitochondrial dehydrogenases by antiproliferative compounds. The activity of this enzyme directly correlates with the number of metabolically active cells in the culture. The antiproliferative effect was evaluated as the IC50 value (the concentration of the compound causing 50% inhibition of cell proliferation).
Human monocytic leukemia THP-1 cells were used for in vitro antiproliferative assay. Cells were obtained from the European Collection of Cell Cultures (ECACC, Salisbury, UK) and routinely cultured in RPMI (Roswell Park Memorial Institute) 1640 medium supplemented with 10% fetal bovine serum, 2% L-glutamine, 1% penicillin, and streptomycin at 37 °C with 5% CO2. Cells were passaged at approximately one-week intervals. The antiproliferative activity of the compounds was determined using a Water Soluble Tetrazolium Salts-1 (WST-1, 2-(4-iodophenyl)-3-(4-nitrophenyl)-5-(2,4-disulfophenyl)-2H-tetrazolium) assay kit (Roche Diagnostics, Mannheim, Germany) according to the manufacturer’s instructions. The tested compounds were dissolved in DMSO and added in various compound concentrations to the cell suspension in the culture RPMI 1640 medium. The maximum concentration of DMSO in the assays never exceeded 0.1%. Subsequently, the cells were incubated at 37 °C with 5% CO2 for 24 h. For WST-1 assays, cells were seeded into 96-well plates (5 × 10^4 cells/well in 100 μL culture medium) in triplicate in serum-free RPMI 1640 medium, and measurements were taken 24 h after the treatment with the compounds. The median inhibition concentration values, IC50, were deduced through the production of a dose-response curve. All data were evaluated using GraphPad Prism 5.00 software (GraphPad Software, San Diego, CA, USA).

The test system of data set [2] is Candida albicans CCM 8261. Nature of the data set: minimum fungistatic concentration, RPMI 1640. The format is cell-based. To be noted: CCM8261, CA = C albicans CCM 8261, 48 h. As to the method: Fungistatic activity was tested similarly in RPMI (Roswell Park Memorial Institute) 1640 medium (Sigma, Pool, UK). […] A growth control and sterility control were included. The colonies of C. albicans grown overnight on Sabourad dextrose agar were suspended in sterile phosphate-buffered saline (PBS) to get cell density 0.5 McFarland. The inoculum was diluted to get a final concentration of 10^3 CFU/mL in the wells. Plates were inoculated and cultivated at 37 °C for 48 h. The minimum fungistatic concentration was visually evaluated as the lowest concentration of a tested compound, which inhibited 100% of yeast growth. 5-Flucytosin (Sigma, UK) was used as a positive control.

On the set-up of data set [3]: method as in PMID 30274224. To be noted: isocratic RP-HPLC, extrapolated lipophilicity index; cited from earlier work.
The test system of data set [4] is vancomycin-resistant enterococci VRE 725B. Description: MIC, broth microdilution. The format is cell-based, Enterococcus faecalis. To be noted: Enterococcus; VRE3 = VRE 725B; read-out: MICs. As to the method: (§1) The modified broth microdilution method was used for in vitro evaluation of minimum inhibitory concentration. A small portion of bacterial colony cultivated overnight onto nutrient agar (Oxoid, Basingstoke, UK) with 5% bovine blood was suspended in sterile phosphate-buffered saline to get cell density 0.5 McFarland. This inoculum was diluted to reach the final concentration of bacterial cells 5 × 10^5 CFU/mL in the wells. […] For plates with staphylococci, cation adjusted Mueller–Hinton (CaMH) broth (Oxoid) was used; enterococci were cultivated in brain heart infusion (BHI, Oxoid). […] A drug-free control and a sterility control were included. Inoculated plates were incubated in aerobic atmosphere at 37 °C overnight. […] After evaluation of MICs, 10 µL of aliquots from the wells were put onto Mueller–Hinton agar. The agar plates were cultivated at 37 °C for 24 h. The minimum bactericidal concentration (MBC) was defined as the lowest concentration of the compound that killed 99.9% of the bacteria compared to the starting inoculum.

Data set [5] has as its system vancomycin-resistant enterococci VRE 368. Nature of the data set: MIC, broth microdilution. Type of data set: cell-based, Enterococcus faecalis. To be noted: Enterococcus; VRE2 = VRE 368; read-out: MICs. How it is done: as §1
For data set [6], the system named is vancomycin-resistant enterococci VRE 342B. Description: MIC, broth microdilution. The format is cell-based, Enterococcus faecalis. The note with it: Enterococcus; VRE1 = VRE 342B; read-out: MICs. As to the method: as §1
For another data set, the system named is E. faecalis ATCC 29212. Nature of the data set: MIC, broth microdilution. Type of data set: cell-based, Enterococcus faecalis. To be noted: Enterococcus faecalis, ATCC 29212 / ATCC 29213; EF = E. faecalis ATCC 29213. How it is done: as §1
Details of data set [7]: method as in PMID 30274224. To be noted: methanolic solutions, c = 8.0 × 10^−5 M; cited from earlier work.
Details of data set [8]: method as in PMID 30274224. The note with it: cited from earlier work.
The test system of data set [9] is methicillin-resistant S. aureus SA 3202. Description: MIC, broth microdilution. Type of data set: cell-based, Staphylococcus aureus. To be noted: Staphylococcus aureus; MRSA3 = SA 3202; read-out: MICs. As to the method: as §1
In data set [10] the test system is methicillin-resistant S. aureus SA 630. Description: MIC, broth microdilution. The format is cell-based, Staphylococcus aureus. To be noted: Staphylococcus aureus; MRSA2 = SA 630; read-out: MICs. As to the method:
as §1

Data set [11] deals with methicillin-resistant S. aureus 63718. Description: MIC, broth microdilution. The format is cell-based, Staphylococcus aureus. To be noted: Staphylococcus aureus; MRSA1 = S. aureus 63718; read-out: MICs. How it is done: as §1
For a further data set, the system named is S. aureus ATCC 29213. Nature of the data set: MIC, broth microdilution. The format is cell-based, Staphylococcus aureus. To be noted: Staphylococcus aureus, ATCC29213; SA = S. aureus ATCC 29213; read-out: MICs. How it is done: as §1

Structures are written as SMILES. “And” between values parts separate entries of the source, which are not always exact repeats. Identical values can stand only once.

Here are results for ten compounds from publication PMC7168207, “Dibasic Derivatives of Phenylcarbamic Acid as Prospective Antibacterial Agents Interacting with Cytoplasmic Membrane” (Antibiotics, 2020).

In the case of `CCCCOc1ccccc1NC(=O)OC(CN(CCC)CCC)CN1CCCC1` (centres unmarked) [1a], the IC50 in data set [1] is 10.8 ± 1.11 µM. For the same compound, the MIC was > 128 µg/mL and > 213 µM in data set [2]; > 256 µg/mL and > 427 µM in data set [4]; > 256 µg/mL and > 427 µM in [5]; > 256 µg/mL and > 427 µM in data set [6]; > 256 µg/mL and > 427 µM against E. faecalis ATCC 29212; > 256 µg/mL and > 427 µM in [9]. Moreover, the MIC in data set [10] is > 256 µg/mL and > 427 µM; in data set [11], > 256 µg/mL and > 427 µM; with S. aureus ATCC 29213, > 256 µg/mL and > 427 µM. In addition, the log kw in data set [3] is 3.7688. In data set [7], the “log ε2 (Ch-T)” value is 4.19. For the same compound, the “γ (surface tension, relative surface activity)” value in data set [8] was 0.06464 N/m.

With `CCCCCOc1ccccc1NC(=O)OC(CN(CCC)CCC)CN1CCCC1` (centres unmarked) [1b], the IC50 in data set [1] was found to be 12.5 ± 1.22 µM. Also, the MIC in data set [2] was > 128 µg/mL and > 208 µM; in [4], > 256 µg/mL and > 417 µM; in data set [5] it was > 256 µg/mL and > 417 µM; in data set [6], > 256 µg/mL and > 417 µM; in the data set on E. faecalis ATCC 29212 it was > 256 µg/mL and > 417 µM; in data set [9], > 256 µg/mL and > 417 µM. Besides, the MIC in data set [10] is > 256 µg/mL and > 417 µM; in [11], > 256 µg/mL and > 417 µM; with S. aureus ATCC 29213 it was > 256 µg/mL and > 417 µM. The log kw in [3] is 4.0454. Besides, the “log ε2 (Ch-T)” value in data set [7] was 4.05. For the same compound, in data set [8], the “γ (surface tension, relative surface activity)” value was 0.06366 N/m.

Turning to `CCCCCCOc1ccccc1NC(=O)OC(CN(CCC)CCC)CN1CCCC1` (centres unmarked) [1c], the concentration for half-maximal inhibition (IC50) in data set [1] came out at 15.4 ± 0.22 µM. Moreover, the MIC in data set [2] is > 128 µg/mL and > 203 µM; in data set [4], > 256 µg/mL and > 407 µM; in [5] it was > 256 µg/mL and > 407 µM; in [6] it was > 256 µg/mL and > 407 µM; in the data set on E. faecalis ATCC 29212 it was > 256 µg/mL and > 407 µM; in [9], > 256 µg/mL and > 407 µM. For the same compound, the MIC in [10] was > 256 µg/mL and > 407 µM; in [11], > 256 µg/mL and > 407 µM; in the data set with S. aureus ATCC 29213, > 256 µg/mL and > 407 µM. Moreover, the log kw in data set [3] was 4.6049. The “log ε2 (Ch-T)” value in data set [7] is 4.52. In addition, the “γ (surface tension, relative surface activity)” value in data set [8] was 0.06222 N/m.

With `CCCCCCCOc1ccccc1NC(=O)OC(CN(CCC)CCC)CN1CCCC1` (centres unmarked) [1d], the concentration for half-maximal inhibition (IC50) in [1] came out at 16.3 ± 0.7 µM. The MIC in [2] was > 128 µg/mL and 199 µM; in data set [4], > 256 µg/mL and > 398 µM; in data set [5] it was > 256 µg/mL and > 398 µM; in data set [6], > 256 µg/mL and > 398 µM; in the data set with E. faecalis ATCC 29212, > 256 µg/mL and > 398 µM; in [9], > 256 µg/mL and > 398 µM. Further, the MIC was > 256 µg/mL and > 398 µM in data set [10]; > 256 µg/mL and > 398 µM in data set [11]; > 256 µg/mL and > 398 µM with S. aureus ATCC 29213. For the same compound, the log kw in data set [3] was 4.9487. The “log ε2 (Ch-T)” value in [7] is given as 4.08. For the same compound, the “γ (surface tension, relative surface activity)” value in data set [8] is on record as 0.05985 N/m.

For `CCCCOc1cccc(NC(=O)OC(CN(CCC)CCC)CN2CCCC2)c1` (centres unmarked) [1e], the IC50 in [1] was found to be 4.2 ± 0.79 µM. For the same compound, the MIC was > 128 µg/mL and > 259 µM in [2]; 32 µg/mL and 65.1 µM in data set [4]; 64 µg/mL and 129 µM in [5]; 32 µg/mL and 65.1 µM in [6]; 128 µg/mL and 259 µM against E. faecalis ATCC 29212; 64 µg/mL and 129 µM in data set [9]. The MIC was 64 µg/mL and 129 µM in data set [10]; 64 µg/mL and 129 µM in [11]; 64 µg/mL and 129 µM with S. aureus ATCC 29213. In data set [3], the log kw is 4.0258. Further, the “log ε2 (Ch-T)” value in data set [7] is 4.24. In addition, the “γ (surface tension, relative surface activity)” value in data set [8] is 0.06316 N/m.

In the case of `CCCCOc1ccccc1NC(=O)OC(CN(CCC)CCC)CN1CCCCCC1` (centres unmarked) [1i], the 50% inhibitory concentration (IC50) in data set [1] worked out at 23.1 ± 0.95 µM. Moreover, the MIC is > 128 µg/mL and > 203 µM in data set [2]; > 256 µg/mL and > 407 µM in data set [4]; > 256 µg/mL and > 407 µM in data set [5]; > 256 µg/mL and > 407 µM in data set [6]; > 256 µg/mL and > 407 µM in the data set on E. faecalis ATCC 29212; > 256 µg/mL and > 407 µM in [9]. The MIC in data set [10] was > 256 µg/mL and > 407 µM; in data set [11], > 256 µg/mL and > 407 µM; in the data set with S. aureus ATCC 29213, > 256 µg/mL and > 407 µM. For the same compound, the log kw in [3] is 4.4679. In [7], the “log ε2 (Ch-T)” value is on record as 4.08. In addition, in [8], the “γ (surface tension, relative surface activity)” value was 0.06302 N/m.

Consider `Nc1[nH]c(=O)ncc1F` [5-FC, flucytosine, reference compound], for which the MIC in data set [2] was 1 µg/mL and 7.75 µM.

For `CC1(C)S[C@@H]2[C@H](NC(=O)[C@H](N)c3ccccc3)C(=O)N2[C@H]1C(=O)O` [AMP, ampicillin, reference compound], in data set [1], the 50% inhibitory concentration (IC50) is over 30 µM. Also, the MIC in data set [4] was 2 µg/mL and 5.72 µM; in data set [9], > 16 µg/mL and > 45.8 µM; in [10], > 16 µg/mL and > 45.8 µM; in [11], 16 µg/mL and 45.8 µM; in the data set with S. aureus ATCC 29213, 2 µg/mL and 5.72 µM.

Take `CC[C@@]1(O)C(=O)OCc2c1cc1n(c2=O)Cc2cc3ccccc3nc2-1` [CMP, camptothecin, reference compound]: the IC50 in data set [1] was about 0.2 µM.

In the case of `O=C(O)c1cn(C2CC2)c2cc(N3CCNCC3)c(F)cc2c1=O` [CPX, ciprofloxacin, reference compound], the MIC in data set [9], in data set [10] and in [11] was over 16 µg/mL throughout.
